Source: EPA's ToxValDB 9.5 (doi:10.2903/j.efsa.2018.5378)

Columns and labels:
Apis mellifera = details: acute, duration: 48 hours, mortality
Cyprinus carpio = details: acute; duration: 96 hours; mortality
Neomysis kadiakensis = details: chronic/long-term; duration: 28 days; reproduction
Pimephales promelas = details: chronic/long-term, duration: 33 days
Daphnia magna = details: chronic/long-term; duration: 21 days; reproduction
Hypoaspis aculeifer = details: chronic/long-term; duration: 14 days; reproduction
Oncorhynchus mykiss = details: acute; duration: 96 hours; mortality
Tagia sp. = details: chronic/long-term; duration: 56 days; reproduction
[1] = chronic, duration: 2 years, histopathology: neoplastic

Compound | LD50 (Apis mellifera; dermal) | LD50 (Apis mellifera; oral, unspecified) | LD50 (Colinus virginianus; acute, oral, mortality) | NOEL (Colinus virginianus; reproduction developmental) | LC50 (Cyprinus carpio) | NOEC (Neomysis kadiakensis) | NOEC (Pimephales promelas; development) | LD50 (Rattus norvegicus; acute, oral, mortality) | NOAEL (Rattus norvegicus; [1]) | NOAEL (Rattus norvegicus; reproduction developmental, no effects) | NOEC (Daphnia magna) | NOEC (Hypoaspis aculeifer) | LC50 (Oncorhynchus mykiss) | NOEC (Pimephales promelas; other) | NOEC (Tagia sp.)
COc1c(Cl)ccc(-c2nc(C(=O)OCc3ccccc3)c(Cl)c(N)c2F)c1F [Florpyrauxifen-benzyl] | > 100 µg/piece | > 105 µg/piece | > 2250 mg/kg-day | 87.2 mg/kg-day | > 0.0414 µg/mL | 0.0078 mg/L | 0.037 mg/L | > 5000 mg/kg-day | 50 mg/kg-day | 300 mg/kg-day |  |  |  |  | 
COc1c(Cl)ccc(-c2nc(C(=O)O)c(Cl)c(N)c2F)c1F [Florpyrauxifen] |  |  |  |  |  |  |  |  | 50 mg/kg-day |  | 25 mg/L | 25 mg/kg | > 100 µg/mL | 29.8 mg/L | 213 mg/kg
